In experiment [1] the test system is HCT116 colon cancer cell line. Put plainly: MTS-based cell proliferation inhibition assay. Further details: species or system human. To be noted: dose-dependent (FIG. 2).
The next experiment addresses β-catenin/Tcf4 (Homo sapiens (Human), UniProt P35222). Put plainly: Fluorescence polarization (FP) competitive inhibition assay, β-catenin/Tcf4. It is filed as binding. Conditions: Table 2, mean ± SD (n=3). The method, then:
Experiments were performed in 96-well Microfluor 2 black plates (Waltham, Mass.), and the samples were read by a Synergy 2 plate reader (Biotek, Winooski, Vt.). […] The final reaction volume is 100 μL.

β-catenin/Tcf4, sequence (P35222 138-686): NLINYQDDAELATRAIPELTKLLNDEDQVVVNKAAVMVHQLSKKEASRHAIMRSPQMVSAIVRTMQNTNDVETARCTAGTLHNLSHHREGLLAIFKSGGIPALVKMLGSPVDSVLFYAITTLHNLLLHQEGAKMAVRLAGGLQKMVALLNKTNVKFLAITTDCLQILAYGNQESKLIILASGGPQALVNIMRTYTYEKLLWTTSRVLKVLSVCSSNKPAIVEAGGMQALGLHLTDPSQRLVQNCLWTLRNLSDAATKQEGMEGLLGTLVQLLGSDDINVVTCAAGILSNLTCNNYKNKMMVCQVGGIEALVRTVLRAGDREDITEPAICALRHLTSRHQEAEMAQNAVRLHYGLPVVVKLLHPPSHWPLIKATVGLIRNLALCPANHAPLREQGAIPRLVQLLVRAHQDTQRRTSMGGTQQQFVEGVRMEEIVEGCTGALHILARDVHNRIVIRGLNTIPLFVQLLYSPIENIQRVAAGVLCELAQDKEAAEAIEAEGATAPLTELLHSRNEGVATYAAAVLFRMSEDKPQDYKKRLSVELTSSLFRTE

Regarding “3-(2-(1-hydroxy-1H-indazol-5-yl)ethyl)-1,2,4-oxadiazole-5(4H)-thione [Compound 14]”, in experiment [1], the “inhibition of growth of colon cancer cell HCT116” value was “inhibit the proliferation”.

For the substance “3-((1-hydroxy-1H-indazol-5-yl)methyl)-1,2,4-oxadiazol-5(4H)-one [Compound 10]”, the Ki (in general, the equilibrium dissociation constant of an inhibitor or competing ligand from its target) at β-catenin/Tcf4 is 125 ± 1.3 µM.

For the substance “5-(2-(2H-tetrazol-5-yl)ethyl)-1H-indazol-1-ol [Compound 12]”, the “inhibition of growth of colon cancer cell HCT116” value in experiment [1] was “inhibit the proliferation”.

These data come from US9738628B2, “Substituted 1H-indazol-1-OL analogs as inhibitors of beta catenin/Tcf protein-protein interactions” (University of Utah Research Foundation, priority 2012, dated 2017).
